From US20160050895A1, “TRANSGENIC NON-HUMAN ORGANISMS WITH NON-FUNCTIONAL TSPO GENES” (AUSTRALIAN NUCLEAR SCIENCE AND TECHNOLOGY ORGANIZATION, priority 2013, published 2016)

Legend:
TSPO [1] = molecular target: TSPO (Mus musculus, UniProt P50637); assay: Receptor film autoradiography of tissue sections with [3H]PK11195 and [125I]CLINDE; type: binding; design: Snap-frozen tissues were sectioned at 20 μm in a cryostat; from tissue; host or cells: mouse organ sections (brain, retina/eye, heart, adrenal, kidney, testis, spleen), C57BL/6 background
Method: Snap-frozen tissues were sectioned at 20 μm in a cryostat, thaw mounted on poly-L-lysine-coated slides and stored at −80° C. until day of experiment. On the day of the experiment, slides were thawed at room temperature and air dried with a cool stream of air. Total and non-specific binding were determined by incubation with 1 nM of 3H-PK11195 with or without the presence of 3 μM of PK11195 in 130 mM TRIS-HCl buffer (pH 7.4) at room temperature for 20 minutes. Following incubation, the slides were briefly dipped twice in 130 mM TRIS-HCl buffer, washed twice for 5 minutes in fresh 130 mM TRIS-HCl at room temperature. The slides were finally briefly rinsed 3 times in chilled distilled H2O, dried under a cool stream of air and allowed to air dried overnight. Sections were exposed to Kodak BioMax MR film along with tritium microscales with known activity concentrations in X-ray film cassettes. Films were developed after 33 days and digitized using a GS800 Calibrated Densitometer (Bio-Rad, Hercules, Calif., USA). Images were analysed with Quantity One imaging analysis program (Bio-Rad, Hercules, Calif. USA); to assess the level of 3H-PK11195 binding, regions of interest were drawn over the tissue and an average optical density/mm^2 was calculated. Data obtained from an individual film, subject to interfilm variations, were normalized against other films through the optical density oftritium microscales.
The organs including brain, retina, heart, kidney and testes used for film autoradiography were dissected from wild-type (TSPO^+/+), heterozygous (TSPO^+/−), and homozygous (TSPO^−/−) mice and snap-frozen in liquid nitrogen. Cryostat organ sections at 18 μm were placed onto superfrost slides (Menzel-Glaser, Braunschweig, Germany) and stored in the dark at −20° C. for no longer than 1 week before the experiment. […] Tritium standards (Amersham Biosciences, Uppsala, Sweden) co-exposed with the organ sections on each Hyperfilm-^3H (Kodak Film) at 4° C. for 60 days, were used to quantify the autoradiographically measured binding. The hyperfilm was developed using Kodak GBX developer and fixer (Sigma Aldrich, St. Louis, Mo., U.S.A.). The hyperfilm was air-dried overnight before being scanned using the ArtixScan 1800f flatbed scanner (Microtek, Hsinchu, Taiwan), with greyscale using a magnification of 400% and an optical resolution of 2400 pixels per inch. No pre-scanning manipulation or filter was applied.
Tissue sections from TSPO^+/+, TSPO^+/− and TSPO^−/− mice were incubated at room temperature for 20 min in 170 mM Tris-HCl pH 7.4 containing 1 nM [^3H]PK11195 (specific activity 84 Ci/mmol; Perkin Elmer, Waltham, Mass., USA), washed twice for 5 min in 170 mM Tris-HCl, rinsed with 3 dips in ice-cold MilliQ H2O, and dried. […] Displacement binding was carried out in the presence of PK11195 (10 μM), CLINDE (10 μM) and PBR-11 (10 μM).

TSPO [2] = assay: as above; type: binding, mouse; conditions: spleen, kidney, testis sections from TSPO-/- mice; 3 nM [125I]CLINDE, 1 nM [3H]PK11195
Method: Snap-frozen tissues were sectioned at 20 μm in a cryostat, thaw mounted on poly-L-lysine-coated slides and stored at −80° C. until day of experiment. On the day of the experiment, slides were thawed at room temperature and air dried with a cool stream of air. Total and non-specific binding were determined by incubation with 1 nM of 3H-PK11195 with or without the presence of 3 μM of PK11195 in 130 mM TRIS-HCl buffer (pH 7.4) at room temperature for 20 minutes. Following incubation, the slides were briefly dipped twice in 130 mM TRIS-HCl buffer, washed twice for 5 minutes in fresh 130 mM TRIS-HCl at room temperature. […] Images were analysed with Quantity One imaging analysis program (Bio-Rad, Hercules, Calif. USA); to assess the level of 3H-PK11195 binding, regions of interest were drawn over the tissue and an average optical density/mm^2 was calculated. […]
The organs including brain, retina, heart, kidney and testes used for film autoradiography were dissected from wild-type (TSPO^+/+), heterozygous (TSPO^+/−), and homozygous (TSPO^−/−) mice and snap-frozen in liquid nitrogen. […] Tritium standards (Amersham Biosciences, Uppsala, Sweden) co-exposed with the organ sections on each Hyperfilm-^3H (Kodak Film) at 4° C. for 60 days, were used to quantify the autoradiographically measured binding. […]

**Q.** For `CC[C@@H](C)N(C)C(=O)c1cc2ccccc2c(-c2ccccc2Cl)n1` [[^3H]PK11195], which “selectivity for TSPO” value (TSPO [1]; in vitro, validated against TSPO-/- null background) is on record?
**A.** high selectivity

**Q.** And the “Specific binding in tissue sections” value (TSPO [1]; spleen, kidney, testis sections from TSPO+/+ and TSPO+/- mice, 3 nM [125I]CLINDE, 1 nM [3H]PK11195)?
**A.** clearly visible

**Q.** What about the “binding in TSPO-/- tissue” value (TSPO [2]) of the same molecule?
**A.** at background level and not displaceable
